Like-named read-outs stand apart in the source and are kept apart here.
What was measured:
[1] = molecular target: T1, GluN1/GluN2A receptors (Rattus norvegicus, UniProt P35439+Q00959); test: Patch-clamp inhibition of GluN1/GluN2A receptors in transfected HEK293 cells; assay type: cell-based; details: 1 mM glutamate and 10 μM glycine
T1 construct: expressed in transfected cells; host or cells: HEK293
Experimental: FIGURE 7 Concentration–response properties of compound 6 on GluN1/GluN2A-D receptors. (A) Examples of traces obtained from HEK293 cells transfected with cDNAs encoding GluN1/GluN2A, GluN1/GluN2B, GluN1/GluN2C, and GluN1/GluN2D receptors. Agonists (1 mM glutamate and 10 μM glycine) were applied alone and simultaneously with compound 6 (10 μM) to evaluate the inhibitory effect of compound 6 on NMDAR mediated currents (duration of glutamate and steroid application is indicated by filled and open bars, respectively). (B) Concentration–response curves for the compound 6 effect at GluN1/GluN2A-D receptors. Data points are averaged values of normalized responses from at least four HEK293 cells. Error bars represent SD.
Electrophysiological experiments were performed on HEK293 cells transfected with plasmids encoding rat GluN1-1a/GluN2A-D and GFP genes as described previously, ([Petrovic et al., 2005]; [Cais et al., 2008]; [Korinek et al., 2010]) or on primary hippocampal neurons prepared from P0–P1 rats, plated on collagen/poly-D-lysine-coated glass coverslips at a density of ∼50,000 cells/cm^2, and grown in Neurobasal A medium with B27 Supplement (Gibco). Agonist-induced responses were voltage-clamped at a holding potential of −60 mV. […] Agonist-induced responses were low-pass filtered at 2 kHz, digitally sampled at 5 kHz, and analyzed with pClamp software version 10.5 (Molecular Devices). […]

[2] = molecular target: T2, GluN1/GluN2B receptors (Rattus norvegicus, UniProt P35439+Q00960); test: Patch-clamp inhibition of glutamate responses of GluN1/GluN2B receptors in transfected HEK293 cells; assay type: cell-based
T2 construct: expressed in transfected cells; host or cells: HEK293
T2 sequence (Q00960 27-1482, other chains not shown): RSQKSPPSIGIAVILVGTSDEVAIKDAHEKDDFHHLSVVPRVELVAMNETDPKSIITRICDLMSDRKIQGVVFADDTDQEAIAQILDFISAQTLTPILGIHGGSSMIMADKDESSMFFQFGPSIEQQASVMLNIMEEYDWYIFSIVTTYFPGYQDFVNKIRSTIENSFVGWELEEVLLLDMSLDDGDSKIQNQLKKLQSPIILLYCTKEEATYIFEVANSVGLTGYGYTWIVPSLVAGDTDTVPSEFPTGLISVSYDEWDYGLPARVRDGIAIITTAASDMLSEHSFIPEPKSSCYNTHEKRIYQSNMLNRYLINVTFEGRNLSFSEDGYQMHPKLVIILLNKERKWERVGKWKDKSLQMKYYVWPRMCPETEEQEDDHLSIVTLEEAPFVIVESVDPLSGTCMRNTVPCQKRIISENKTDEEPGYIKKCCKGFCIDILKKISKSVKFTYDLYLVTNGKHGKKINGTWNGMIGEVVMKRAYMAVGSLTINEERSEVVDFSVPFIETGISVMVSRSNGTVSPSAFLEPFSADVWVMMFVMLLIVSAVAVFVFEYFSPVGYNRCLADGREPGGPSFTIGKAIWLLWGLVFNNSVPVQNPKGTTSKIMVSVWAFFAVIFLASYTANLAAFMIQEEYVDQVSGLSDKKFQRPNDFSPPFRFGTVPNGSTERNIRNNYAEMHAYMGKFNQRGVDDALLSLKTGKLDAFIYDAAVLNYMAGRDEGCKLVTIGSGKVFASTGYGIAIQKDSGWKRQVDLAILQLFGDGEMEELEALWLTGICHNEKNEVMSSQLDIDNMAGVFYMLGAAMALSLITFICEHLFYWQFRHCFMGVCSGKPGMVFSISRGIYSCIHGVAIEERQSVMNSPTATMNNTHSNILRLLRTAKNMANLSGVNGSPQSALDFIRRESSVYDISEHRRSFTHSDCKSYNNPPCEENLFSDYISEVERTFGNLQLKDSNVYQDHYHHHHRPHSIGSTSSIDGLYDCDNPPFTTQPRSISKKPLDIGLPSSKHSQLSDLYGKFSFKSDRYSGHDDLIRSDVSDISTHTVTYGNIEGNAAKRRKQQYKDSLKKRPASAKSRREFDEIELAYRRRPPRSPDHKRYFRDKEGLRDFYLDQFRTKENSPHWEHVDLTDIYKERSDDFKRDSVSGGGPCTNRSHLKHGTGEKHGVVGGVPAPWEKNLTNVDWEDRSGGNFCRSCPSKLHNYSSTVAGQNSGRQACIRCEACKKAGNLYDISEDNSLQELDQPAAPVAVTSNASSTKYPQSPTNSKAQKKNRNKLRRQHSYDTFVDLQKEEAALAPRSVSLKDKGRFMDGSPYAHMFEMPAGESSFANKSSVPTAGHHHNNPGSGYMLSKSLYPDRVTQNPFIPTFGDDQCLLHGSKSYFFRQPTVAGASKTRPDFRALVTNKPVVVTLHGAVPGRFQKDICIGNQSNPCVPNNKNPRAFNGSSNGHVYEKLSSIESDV

T1 sequence (Q00959 23-1464, other chains not shown): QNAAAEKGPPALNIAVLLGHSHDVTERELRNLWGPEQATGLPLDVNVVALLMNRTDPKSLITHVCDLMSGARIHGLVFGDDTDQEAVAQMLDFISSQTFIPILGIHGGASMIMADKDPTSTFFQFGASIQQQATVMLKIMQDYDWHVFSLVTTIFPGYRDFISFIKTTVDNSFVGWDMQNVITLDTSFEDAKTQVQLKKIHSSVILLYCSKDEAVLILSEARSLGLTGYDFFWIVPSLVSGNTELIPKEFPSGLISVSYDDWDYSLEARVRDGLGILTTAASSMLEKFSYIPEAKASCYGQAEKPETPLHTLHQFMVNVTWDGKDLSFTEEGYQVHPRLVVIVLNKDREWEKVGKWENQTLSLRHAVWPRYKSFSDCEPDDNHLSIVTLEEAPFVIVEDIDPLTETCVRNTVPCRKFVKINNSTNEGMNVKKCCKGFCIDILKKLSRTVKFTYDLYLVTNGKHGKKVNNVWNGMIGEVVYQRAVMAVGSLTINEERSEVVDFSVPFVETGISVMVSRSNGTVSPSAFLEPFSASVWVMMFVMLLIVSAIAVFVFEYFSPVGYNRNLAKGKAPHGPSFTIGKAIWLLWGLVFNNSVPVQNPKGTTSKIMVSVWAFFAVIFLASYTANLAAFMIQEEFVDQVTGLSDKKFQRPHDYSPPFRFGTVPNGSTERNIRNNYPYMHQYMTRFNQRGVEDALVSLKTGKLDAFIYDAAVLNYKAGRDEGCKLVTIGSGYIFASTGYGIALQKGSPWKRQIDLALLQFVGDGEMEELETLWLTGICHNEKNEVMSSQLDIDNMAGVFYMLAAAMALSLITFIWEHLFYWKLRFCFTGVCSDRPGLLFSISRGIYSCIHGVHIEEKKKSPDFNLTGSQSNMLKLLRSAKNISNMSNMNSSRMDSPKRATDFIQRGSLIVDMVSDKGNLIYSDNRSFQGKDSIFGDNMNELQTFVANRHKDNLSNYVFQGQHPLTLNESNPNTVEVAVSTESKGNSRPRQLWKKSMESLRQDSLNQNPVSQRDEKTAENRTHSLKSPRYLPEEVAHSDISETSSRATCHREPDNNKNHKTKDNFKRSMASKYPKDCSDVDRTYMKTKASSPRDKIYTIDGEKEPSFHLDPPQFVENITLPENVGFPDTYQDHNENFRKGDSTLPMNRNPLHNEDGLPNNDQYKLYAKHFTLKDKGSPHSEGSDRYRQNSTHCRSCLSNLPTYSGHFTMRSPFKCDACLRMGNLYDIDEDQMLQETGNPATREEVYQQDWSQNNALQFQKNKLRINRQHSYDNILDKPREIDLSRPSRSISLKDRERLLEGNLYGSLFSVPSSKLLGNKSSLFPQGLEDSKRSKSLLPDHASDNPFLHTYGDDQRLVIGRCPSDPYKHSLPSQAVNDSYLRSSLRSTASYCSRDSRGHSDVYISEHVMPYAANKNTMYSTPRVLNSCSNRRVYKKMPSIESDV

C[C@@]12CCC[C@H]1[C@@H]1CC[C@@H]3C[C@H](NC(=O)[C@@H](N)CC(=O)O)CC[C@]3(C)[C@H]1CC2 [Compound 6, (S)-3-amino-4-(((3R,5R,8S,9S,10S,13S,14S)-10,13-dimethylhexadecahydro-1H-cyclopenta[a]phenanthren-3-yl)amino)-4-oxobutanoic acid]
h ± SD (apparent Hill coefficient) [1]: 1.3 ± 0.1
IC50 ([1]; concentration-response): 6.5 ± 0.7 µM
ΔGexp [2]: -7.29 kcal/mol
h ± SD (apparent Hill coefficient) ([2]; 1 mM glutamate and 10 μM glycine): 1.3 ± 0.1
IC50 ([2]; as repeated in Table 2, read-out: IC50): 4.8 µM
IC50 ([2]; concentration-response, 1 mM glutamate and 10 μM glycine, read-out: IC50 ±SD): 7.4 ± 0.8 µM
IC50 ([2]; current responses to glutamate, HEK293, IC50 from single steroid dose, Hill coefficient fixed at 1.2, read-out: IC50 ± SD): 4.8 ± 0.9 µM
